According to patent US11278602B2, “Medicine for Covid-19 and treatment” (Therapeutica Borealis Oy, priority 2020, dated 2022):

What was measured:
[1] = components of the nasal spray; cited from earlier work
[2] = pKa / protonation state of weak base; format: physicochemical; conditions: per the Henderson-Hasselbalch equation
Text: Nicotine is also known to be a weak base, pH 8.5. It has been shown in earlier in vitro studies that it could inhibit receptor mediated endosytosis. Due to the fact that it is a weak base it could penetrate cell membrane especially at pH near its isoelectric point and thus it may also effect glycosylation at Golgi compartment.

Compound	solubility in water [1]	deprotonated at physiological pH [2]
CCN(CCO)CCCC(C)Nc1ccnc2cc(Cl)ccc12 (stereo not shown) [Hydroxychloroquine]	at least 200 mg/mL	–
CCN(CC)CCCC(C)Nc1ccnc2cc(Cl)ccc12 (stereo not shown) [chloroquine]	–	about 10%
Aprotinin	> 10 mg/mL	–
Ivermectin	50 mg/mL	–
